From patent US20130253048A1, “Pharmaceutical Composition for Promoting Osteogenesis Containing Axial-equatorial Aryl-oriented Furofuran-type Lignan, and Pharmaceutical Preparation, Functional Food Product, and Health Food Product Comprising Composition” (ERINA CO., INC., priority 2010, published 2013)
Read-outs that look alike come from different tables or passages of the source.

System: BMCs and UAMS-32 cells co-culture
Test: Differentiation of osteoblast and osteoclast in co-culture (ALP and TRAP activity)
Format: cell-based, mouse
Settings: for activity at 2 µM / activity at 6 µM / activity at 20 µM / activity at 60 µM / activity at 80 µM: Mus musculus, 120 h, 5 days co-culture, negative control = 100%
Experimental: Four-week-old ddY male mice (Japan SLC, Inc.) were killed by the cervical dislocation, and then, the long bones of left and right lower extremities were excised with muscles. All of the muscles were removed from the bones, and the femurs and shinbones were obtained. The both ends of the obtained femurs and shinbones were scraped a little by a little. The cells in the bone morrow were pushed out into the following medium by using a 2.5 ml of syringe with a needle (22G×1¼; Thermo corporation). After that, contaminants were eliminated through a filter ([…] Nylon Cell Strainer; Japan Becton, Dickinson and Company) to obtain more than 2×10^8 cells of BMCs.
Osteoblast-like cells, UAMS-32 cells, were purchased from the Institution of Physical and Chemical Research (Japan).
In order to prepare the basic medium, 10.2 g of α-MEM (powder, Life Technologies Japan Corporation (GIBCO)) was dissolved in 1 L of purified water and 2.2 g/l (w/v) of sodium bicarbonate was added. Then, it was filtered through a sterilized filter of which pore diameter was 0.22 μm (Nihon Millipore K. K). Further, the basic mediums were supplemented with 10% (v/v) fetal bovine serum (FBS) (Sigma, heat-inactivated for 30 minutes at 56° C.).
In this example, 1 μM of PGE2 and 10 nM of Vitamin D3 (both from Wako Pure Chemical Industries, Ltd.) were added to the medium to prepare a co-culture medium. By using the co-culture medium, cell suspensions of BMCs and UAMS-32 obtained as mentioned above were prepared. For the test group, 2 to 80 μM of fargesin was added, and for the negative control group, DMSO was added so as to be 0.3% of the final concentration.
BMCs were plated at the concentration of 2×10^6 cells/well, and UAMS-32 cells were plated at the concentration of 1×10^5 cells/well in each well of the 96 well plates, respectively. Then, the cells were co-cultured in the co-culture medium under the conditions of 5% CO2 and 37 degree centigrade for 5 days. The medium were changed on the 3rd days from the culture start. After cells were fixed as described in below, alkaline phosphatase (ALP) activity was measured as the index of osteoblast differentiation; tartrate-resistant acid phosphatase activity was measured as the index of osteoclast differentiation.
The cells were cultured under the above-mentioned conditions, 10% formalin aqueous solution was added into each well still standing for 10 minutes, and then ethanol was added still standing for further 1 minute to fix the cells. In order to measure TRAP activity, 10 mM sodium tartrate/50 mM citric acid buffer solution containing 1.36 mg of p-nitrophenyl sodium phosphate (Sigma-Aldrich Co. LLC.) (pH 4.6) was prepared as a substrate solution for TRAP. The substrate solution for TRAP was added to the well at the volume of 100 μl/well, and reacted for 15 to 20 minutes at a room temperature. The reaction solution was transferred into another 96 well plate, to which 100 μl/well of 0.1N NaOH was previously added to stop the reaction, and they were measured at absorbance of 405 nm.
50 mM sodium tartrate/0.1 M of sodium acetate buffer (pH 5.0) including 0.1 mg/ml naphthol AS-MX phosphate (sigma N-4875) and 0.6 mg/ml Fast red violet LB salt (both from Sigma-Aldrich Japan Co. LLC.) was prepared as TRAP staining solution. The TRAP staining solution was added to the wells to stain the cells in negative control group till they took on red color under room temperature. After that, the cells were washed with distilled water. The cells stained red and having not less than two nuclei was decided as multinuclear osteoclast, of which number was counted by using the microscope.
After the cells were cultured under the conditions, 100 μl/well of methanol cooled to −20 degree centigrade was added into the cells and stood for further 1 minute to fix the cells. […]

COc1ccc([C@@H]2OC[C@H]3[C@@H]2CO[C@@H]3c2ccc3c(c2)OCO3)cc1OC [fargesin, Fargesin] was tested, and the “cells differentiated to the osteoclast, ALP and TRAP double staining” value (60 to 80 μM, co-culture) was “rarely observed”, the activity at 2 µM (read-out: ALP activity (%)) was 113 ± 15.7% and the activity at 2 µM (read-out: TRAP activity (%)) was 89.5 ± 5.4%. For the same compound, the activity at 6 µM (read-out: ALP activity (%)) was 120 ± 10.1%, the activity at 6 µM (read-out: TRAP activity (%)) was 88.7 ± 7.2% and the activity at 20 µM (read-out: ALP activity (%)) was 146 ± 14.4%. The activity at 20 µM (read-out: TRAP activity (%)) was 74.4 ± 8.5%, the activity at 60 µM (read-out: ALP activity (%)) was 164 ± 14% and the activity at 60 µM (read-out: TRAP activity (%)) was 42.4 ± 7.1%. For the same compound, the activity at 80 µM (read-out: ALP activity (%)) was 199 ± 14.6% and the activity at 80 µM (read-out: TRAP activity (%)) was 35.7 ± 5.6%.
